PubChem BioAssay AID248 (DTP/NCI, 2004)
Several values for one entry are separate records, joined by “and”; a condition that tells them apart may be missing. Equal values may be shown once. Inconclusive results and toxic doses are left out. Rule as the data show it: active = T/C of 150% or more; inactive = T/C below 125%.

System: L1210 leukemia ip in BDF1 mice, survival T/C
Experiment: NCI In Vivo Anticancer Drug Screen. Data for tumor model L1210 Leukemia (intraperitoneal) in B6D2F1 (BDF1) mice
Details: endpoint: mean survival time, higher = longer survival
In short: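 Survival endpoint. Drug-treated group vs vehicle group, expressed as T divided by C. Tumor passaged by transplantation.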

[1] = dose: 100.0 mg/kg/injection, schedule: Q01DX001 (ip), vehicle: Klucel (hydroxypropylcellulose) (HPC)
[2] = dose: 100.0 mg/kg/injection, schedule: Q01DX009 (ip), vehicle: Klucel (hydroxypropylcellulose) (HPC)
[3] = dose: 100.0 mg/kg/injection, schedule: Q04DX002 (ip), vehicle: Klucel (hydroxypropylcellulose) (HPC)
[4] = dose: 200.0 mg/kg/injection, schedule: Q01DX001 (ip), vehicle: Klucel (hydroxypropylcellulose) (HPC)
[5] = dose: 200.0 mg/kg/injection, schedule: Q04DX002 (ip), vehicle: Klucel (hydroxypropylcellulose) (HPC)
[6] = dose: 25.0 mg/kg/injection, schedule: Q01DX009 (ip), vehicle: Klucel (hydroxypropylcellulose) (HPC)
[7] = dose: 100.0 mg/kg/injection, schedule: Q01DX009 (ip), vehicle: saline with Tween-80
[8] = dose: 100.0 mg/kg/injection, schedule: Q04DX003 (ip), vehicle: saline with Tween-80
[9] = dose: 200.0 mg/kg/injection, schedule: Q01DX009 (ip), vehicle: saline with Tween-80
[10] = dose: 200.0 mg/kg/injection, schedule: Q04DX003 (ip), vehicle: saline with Tween-80
[11] = dose: 400.0 mg/kg/injection, schedule: Q01DX009 (ip), vehicle: saline with Tween-80
[12] = dose: 400.0 mg/kg/injection, schedule: Q04DX003 (ip), vehicle: saline with Tween-80
[13] = dose: 50.0 mg/kg/injection, schedule: Q01DX001 (ip), vehicle: Klucel (hydroxypropylcellulose) (HPC)
[14] = dose: 100.0 mg/kg/injection, schedule: Q04DX003 (ip), vehicle: saline
[15] = dose: 200.0 mg/kg/injection, schedule: Q04DX003 (ip), vehicle: saline
[16] = dose: 400.0 mg/kg/injection, schedule: Q04DX003 (ip), vehicle: saline

Measured: T/C

O=C(COCC(=O)N/N=C/c1ccccc1O)N/N=C/c1ccccc1O
inactive: [1] 93 % of control | [2] 98 % of control and 103 % of control | [3] 109 % of control | dose: 100.0 mg/kg/injection, schedule: Q04DX003 (ip), vehicle: Klucel (hydroxypropylcellulose) (HPC) 110 % of control | [4] 92 % of control | dose: 200.0 mg/kg/injection, schedule: Q01DX009 (ip), vehicle: Klucel (hydroxypropylcellulose) (HPC) 94 % of control and 98 % of control | [5] 91 % of control | dose: 200.0 mg/kg/injection, schedule: Q04DX003 (ip), vehicle: Klucel (hydroxypropylcellulose) (HPC) 108 % of control | dose: 400.0 mg/kg/injection, schedule: Q01DX001 (ip), vehicle: Klucel (hydroxypropylcellulose) (HPC) 91 % of control | dose: 400.0 mg/kg/injection, schedule: Q01DX009 (ip), vehicle: Klucel (hydroxypropylcellulose) (HPC) 95 % of control and 87 % of control | dose: 400.0 mg/kg/injection, schedule: Q04DX002 (ip), vehicle: Klucel (hydroxypropylcellulose) (HPC) 100 % of control | dose: 400.0 mg/kg/injection, schedule: Q04DX003 (ip), vehicle: Klucel (hydroxypropylcellulose) (HPC) 105 % of control

C(CCCCCC1CCC2CCCC2C1)CCCCC1CCC2CCCC2C1 (stereo unspecified)
inactive: dose: 100.0 mg/kg/injection, schedule: Q01DX001 (ip), vehicle: saline with Tween-80 87 % of control | dose: 200.0 mg/kg/injection, schedule: Q01DX001 (ip), vehicle: saline with Tween-80 101 % of control | dose: 400.0 mg/kg/injection, schedule: Q01DX001 (ip), vehicle: saline with Tween-80 87 % of control

S=C(NCCN1CCCC1)Nc1ccccc1
inactive: [6] 119 % of control | dose: 50.0 mg/kg/injection, schedule: Q01DX009 (ip), vehicle: Klucel (hydroxypropylcellulose) (HPC) 104 % of control | [2] 97 % of control and 114 % of control

CC(=O)Nc1ccc(/C=C/C(=O)c2ccc([N+](=O)[O-])cc2)cc1
inactive: [7] 94 % of control | [8] 91 % of control | [9] 94 % of control | [10] 94 % of control | [11] 94 % of control | [12] 90 % of control

CC(=O)Nc1ccc(N=C(N)c2ccc(C(N)=Nc3ccc(NC(C)=O)cc3)cc2)cc1
inactive: dose: 62.0 mg/kg/injection, schedule: Q01DX015 (ip), vehicle: methylcellulose (MC) 98 % of control | dose: 125.0 mg/kg/injection, schedule: Q01DX015 (ip), vehicle: methylcellulose (MC) 86 % of control | dose: 250.0 mg/kg/injection, schedule: Q01DX015 (ip), vehicle: methylcellulose (MC) 91 % of control | dose: 500.0 mg/kg/injection, schedule: Q01DX015 (ip), vehicle: methylcellulose (MC) 86 % of control

CCCCOC(=O)C1CCCC1=O (stereo unspecified)
inactive: [7] 94 % of control | [8] 97 % of control | [9] 103 % of control | [10] 94 % of control | [11] 95 % of control | [12] 97 % of control

Cc1ccc(-n2c(O)c(N=Nc3ccc(Cl)cc3)c(=O)n(-c3ccc(Cl)cc3)c2=S)cc1
inactive: [13] 100 % of control | [1] 105 % of control | [4] 95 % of control

CC(C)(C)C(O)C1CCCS1(=O)=O (stereo unspecified)
inactive: [13] 96 % of control

C/C(=C(/CCO)SCC/C(=N/O)c1ccccc1)N(C=O)Cc1cnc(C)nc1N
inactive: [14] 104 % of control | [15] 97 % of control | [16] 93 % of control

CC(=O)OCCOc1ccccc1Cl
inactive: dose: 100.0 mg/kg/injection, schedule: Q04DX002 (ip), vehicle: saline with Tween-80 118 % of control | dose: 200.0 mg/kg/injection, schedule: Q04DX002 (ip), vehicle: saline with Tween-80 108 % of control | dose: 400.0 mg/kg/injection, schedule: Q04DX002 (ip), vehicle: saline with Tween-80 114 % of control

Cc1cc(C(=O)O)c(C)cc1SSc1cc(C)c(C(=O)O)cc1C
inactive: dose: 75.0 mg/kg/injection, schedule: Q01DX001 (ip), vehicle: carboxymethylcellulose (CMC) 94 % of control | dose: 150.0 mg/kg/injection, schedule: Q01DX001 (ip), vehicle: carboxymethylcellulose (CMC) 94 % of control | dose: 300.0 mg/kg/injection, schedule: Q01DX001 (ip), vehicle: carboxymethylcellulose (CMC) 88 % of control

O=C(Nc1ccc(Cl)c([N+](=O)[O-])c1)Oc1ccc2ccccc2c1
inactive: dose: 100.0 mg/kg/injection, schedule: Q01DX009 (ip), vehicle: other 92 % of control | dose: 200.0 mg/kg/injection, schedule: Q01DX009 (ip), vehicle: other 97 % of control | dose: 400.0 mg/kg/injection, schedule: Q01DX009 (ip), vehicle: other 107 % of control

O=C1NC(=S)S/C1=C\c1ccncc1
inactive: dose: 50.0 mg/kg/injection, schedule: Q01DX001 (ip), vehicle: carboxymethylcellulose (CMC) 94 % of control | dose: 100.0 mg/kg/injection, schedule: Q01DX001 (ip), vehicle: carboxymethylcellulose (CMC) 89 % of control | dose: 200.0 mg/kg/injection, schedule: Q01DX001 (ip), vehicle: carboxymethylcellulose (CMC) 92 % of control | dose: 400.0 mg/kg/injection, schedule: Q01DX001 (ip), vehicle: carboxymethylcellulose (CMC) 99 % of control

CC(=O)c1sccc1C
inactive: dose: 6.25 mg/kg/injection, schedule: Q01DX009 (ip), vehicle: Klucel (hydroxypropylcellulose) (HPC) 93 % of control | dose: 12.5 mg/kg/injection, schedule: Q01DX009 (ip), vehicle: Klucel (hydroxypropylcellulose) (HPC) 92 % of control | dose: 12.5 mg/kg/injection, schedule: Q04DX003 (ip), vehicle: Klucel (hydroxypropylcellulose) (HPC) 101 % of control | [6] 90 % of control | dose: 25.0 mg/kg/injection, schedule: Q04DX003 (ip), vehicle: Klucel (hydroxypropylcellulose) (HPC) 92 % of control

O=C1c2ccccc2C(c2ccccc2)C1c1ccccc1 (stereo unspecified)
inactive: dose: 50.0 mg/kg/injection, schedule: Q04DX002 (ip), vehicle: Klucel (hydroxypropylcellulose) (HPC) 108 % of control | [3] 94 % of control | [5] 94 % of control

CC(=O)[O][Hg][c]1c(C)c(C)c(C)c(C)c1C
inactive: dose: 12.5 mg/kg/injection, schedule: Q04DX003 (ip), vehicle: saline with Tween-80 87 % of control | dose: 25.0 mg/kg/injection, schedule: Q04DX003 (ip), vehicle: saline with Tween-80 87 % of control | dose: 50.0 mg/kg/injection, schedule: Q04DX003 (ip), vehicle: saline with Tween-80 87 % of control

Cc1ccccc1C(C)(O)Cc1nccn1Cc1ccccc1 (stereo unspecified)
inactive: [14] 90 % of control | [15] 95 % of control | [16] 103 % of control

CN(NC(=O)CC(=O)NN(C)C(=S)c1ccc(Cl)cc1)C(=S)c1ccc(Cl)cc1
inactive: dose: 25.0 mg/kg/injection, schedule: Q01DX009 (ip), vehicle: gum acacia 96 % of control | dose: 25.0 mg/kg/injection, schedule: Q04DX003 (ip), vehicle: gum acacia 92 % of control | dose: 50.0 mg/kg/injection, schedule: Q01DX009 (ip), vehicle: gum acacia 91 % of control | dose: 50.0 mg/kg/injection, schedule: Q04DX003 (ip), vehicle: gum acacia 93 % of control | dose: 100.0 mg/kg/injection, schedule: Q01DX009 (ip), vehicle: gum acacia 89 % of control | dose: 100.0 mg/kg/injection, schedule: Q04DX003 (ip), vehicle: gum acacia 90 % of control | dose: 200.0 mg/kg/injection, schedule: Q04DX003 (ip), vehicle: gum acacia 86 % of control | dose: 400.0 mg/kg/injection, schedule: Q04DX003 (ip), vehicle: gum acacia 92 % of control

Cc1ccc(CN(CC(=O)O)N=O)cc1
inactive: dose: 100.0 mg/kg/injection, schedule: Q01DX Z (ip), vehicle: saline 107 % of control | dose: 200.0 mg/kg/injection, schedule: Q01DX Z (ip), vehicle: saline 100 % of control

Nc1ccc(I)c(Cl)c1Cl
inactive: [7] 110 % of control | [9] 108 % of control | [11] 102 % of control
